Converted amounts (≈) assume the structure as drawn. Residues, ends and D or L forms follow the SMILES beside them. No end group written: not given here.
Tests used:
[1] = tested on: Pseudomonas aeruginosa
Description: (§1) The antimicrobial activity of synthetic piscidin 1, piscidin 2 and piscidin 3 (P1, P2 and P3) was tested against a variety of different bacteria.

[2] = tested on: Aeromonas hydrophilia; type: cell-based
Description: as §1

[3] = tested on: Enterococcus gallinarum; type: cell-based
Description: as §1

[4] = tested on: Escherichia coli
Description: as §1

[5] = tested on: Staphylococcus aureus
Description: as §1

[6] = tested on: Staphylococcus epidermidis; type: cell-based
Description: as §1

[7] = tested on: Enterococcus faecium; type: cell-based; details: Case 00-1437, vancomycin resistant, vanA; MHB
Description: as §1

[8] = tested on: Streptococcus iniae; type: cell-based
Description: as §1

[9] = tested on: bacteria; test: Antibacterial activity of synthetic SEQ ID NO: 4 sequence; type: cell-based; details: synthetic sequence with tryptophan as X
From the text: [SEQ ID NO: 4], where X is tryptophan or beta-hydroxytryptophan. It is tentatively believed that beta-hydroxytryptophan is present as X in the natural sequence.

[10] = tested on: human pathogens; test: Activity of dimeric peptide against human pathogens; type: cell-based
From the text: (§2) where CC is linked via a disulfide bridge.

[11] = type: cell-based
From the text: as §2

Compound	MBC [1] [µg/mL]	MIC [1] [µg/mL]	MBC [2] [µg/mL]	MIC [2] [µg/mL]	MBC [3] [µg/mL]	MIC [3] [µg/mL]	also measured
CC[C@H](C)[C@H](NC(=O)CNC(=O)[C@H](CCCNC(=N)N)NC(=O)[C@H](Cc1ccccc1)NC(=O)[C@@H](NC(=O)[C@H](Cc1c[nH]cn1)NC(=O)[C@H](Cc1c[nH]cn1)NC(=O)[C@H](Cc1ccccc1)NC(=O)[C@@H](N)Cc1ccccc1)[C@@H](C)CC)C(=O)N[C@H](C(=O)N[C@@H](Cc1c[nH]cn1)C(=O)N[C@H](C(=O)NCC(=O)N[C@@H](CCCCN)C(=O)N[C@H](C(=O)N[C@H](C(=O)N[C@@H](Cc1c[nH]cn1)C(=O)N[C@@H](CCCNC(=N)N)C(=O)N[C@@H](CC(C)C)C(=O)N[C@H](C(=O)N[C@H](C(=O)NCC(N)=O)[C@@H](C)O)C(C)C)[C@@H](C)CC)[C@@H](C)O)C(C)C)C(C)C [P1] (H-FFHHIFRGIVHVGKTIHRLVTG-NH2; N-terminus assumed)	12.5 (≈ 4.86 µM)	12.5 (≈ 4.86 µM)	0.79 to 1.57	0.79 to 1.57	12.5 (≈ 4.86 µM)	12.5 (≈ 4.86 µM)	–
CC[C@H](C)[C@H](NC(=O)CNC(=O)[C@H](CCCNC(=N)N)NC(=O)[C@H](Cc1ccccc1)NC(=O)[C@@H](NC(=O)[C@H](Cc1c[nH]cn1)NC(=O)[C@H](Cc1c[nH]cn1)NC(=O)[C@@H](NC(=O)[C@@H](N)Cc1ccccc1)[C@@H](C)CC)[C@@H](C)CC)C(=O)N[C@H](C(=O)N[C@@H](Cc1c[nH]cn1)C(=O)N[C@@H](C)C(=O)NCC(=O)N[C@@H](CCCNC(=N)N)C(=O)N[C@@H](CO)C(=O)N[C@H](C(=O)NCC(=O)N[C@@H](CCCNC(=N)N)C(=O)N[C@@H](Cc1ccccc1)C(=O)N[C@@H](CC(C)C)C(=O)N[C@H](C(=O)NCC(N)=O)[C@@H](C)O)[C@@H](C)CC)C(C)C [P3] (H-FIHHIFRGIVHAGRSIGRFLTG-NH2; N-terminus assumed)	25 (≈ 10 µM)	25 (≈ 10 µM)	1.57 to 3.13	1.57 to 3.13	50 (≈ 20.1 µM)	50 (≈ 20.1 µM)	MBC [4]: 3.13 µg/mL (≈ 1.26 µM); MIC [4]: 3.13 µg/mL (≈ 1.26 µM); MBC [5]: 3.13 µg/mL (≈ 1.26 µM); MIC [5]: 3.13 µg/mL (≈ 1.26 µM); MIC [6]: 3.13 µg/mL (≈ 1.26 µM); MIC [7]: 3.13 to 6.25 µg/mL; MBC [8]: 3.13 µg/mL (≈ 1.26 µM); MIC [8]: 3.13 µg/mL (≈ 1.26 µM)
FFRHLFRGAKAIFRGARQGXRAHKVVSRYRNRDVPETDNNQEEP [SEQ ID NO: 4, Endobiotic Family 2 peptide, about 5329 Da, X is tryptophan or beta-hydroxytryptophan]	–	–	–	–	–	–	antibacterial activity [9]: potent antibacterial activity
HVIGRFIHHFFCCFFHHIFRGIVH (cysteine pairing not given here; also: dimer) [SEQ ID NO: 6]	–	–	–	–	–	–	activity against several human pathogens [10]: active against several human pathogens; hemolytic activity [11]: no detectable hemolytic activity
